Laboratory results reported in the supplement of paper PMC10307832.

Columns and labels:
Assay in all cases: relative viability (nuclei count vs DMSO), 5 days (fraction); higher = more cells survive
AZ628 + Decitabine = compound: CC1=C(C=C(C=C1)NC(=O)C2=CC(=CC=C2)C(C)(C)C#N)NC3=CC4=C(C=C3)N=CN(C4=O)C [AZ628] + Nc1ncn([C@H]2C[C@H](O)[C@@H](CO)O2)c(=O)n1 [Decitabine] (partner 2 µM)
Summary of the method: (§1)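 Relative viability was taken as the ratio of nuclei in treated wells to nuclei in vehicle wells. Lung cancer cell lines in 1536-well plates received compounds by pin tool one day after seeding, either one drug alone or a fixed anchor-drug dose plus five library-drug doses (not always all listed) in √10 steps. Nuclei were counted on 4× images after 5 days of treatment, and values are medians of duplicate plates.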

QS11 + Linsitinib = compound: C1CC2=C(C1)C=C(C=C2)OC3=NC(=C4C(=N3)N(C=N4)CC5=CC=C(C=C5)C6=CC=CC=C6)N[C@@H](CC7=CC=CC=C7)CO [QS11] + C[C@]1(O)C[C@@H](c2nc(-c3ccc4ccc(-c5ccccc5)nc4c3)c3c(N)nccn32)C1 [Linsitinib] (partner 1 µM)
Summary of the method: as §1

AZ628 + Foretinib = compound: CC1=C(C=C(C=C1)NC(=O)C2=CC(=CC=C2)C(C)(C)C#N)NC3=CC4=C(C=C3)N=CN(C4=O)C [AZ628] + COc1cc2c(Oc3ccc(NC(=O)C4(C(=O)Nc5ccc(F)cc5)CC4)cc3F)ccnc2cc1OCCCN1CCOCC1 [Foretinib] (partner 0.25 µM)
Summary of the method: as §1

Darinaparsin + Alpelisib = compound: C[As](C)SC[C@H](NC(=O)CC[C@H](N)C(=O)O)C(=O)NCC(=O)O [Darinaparsin] + Cc1nc(NC(=O)N2CCC[C@H]2C(N)=O)sc1-c1ccnc(C(C)(C)C(F)(F)F)c1 [Alpelisib] (partner 2 µM)
Summary of the method: as §1

## PC-14
AZ628 + Decitabine; first compound 0.08 µM
  relative viability: 0.255
AZ628 + Decitabine; first compound 0.253 µM
  relative viability: 0.228
AZ628 + Decitabine; first compound 0.8 µM
  relative viability: 0.168
AZ628 + Decitabine; first compound 2.53 µM
  relative viability: 0.19
AZ628 + Decitabine; first compound 8 µM
  relative viability: 0.166
QS11 + Linsitinib; first compound 0.08 µM
  relative viability: 1.04
QS11 + Linsitinib; first compound 0.253 µM
  relative viability: 1.08
QS11 + Linsitinib; first compound 0.8 µM
  relative viability: 0.758
QS11 + Linsitinib; first compound 2.53 µM
  relative viability: 0.906
QS11 + Linsitinib; first compound 8 µM
  relative viability: 0.901
AZ628 + Foretinib; first compound 0.08 µM
  relative viability: 0.95
AZ628 + Foretinib; first compound 0.253 µM
  relative viability: 0.916
AZ628 + Foretinib; first compound 0.8 µM
  relative viability: 0.949
AZ628 + Foretinib; first compound 2.53 µM
  relative viability: 0.945
AZ628 + Foretinib; first compound 8 µM
  relative viability: 0.765
Darinaparsin + Alpelisib; first compound 0.08 µM
  relative viability: 0.858
Darinaparsin + Alpelisib; first compound 0.8 µM
  relative viability: 1.02
Darinaparsin + Alpelisib; first compound 2.53 µM
  relative viability: 0.742
Darinaparsin + Alpelisib; first compound 8 µM
  relative viability: 1.2

## EPLC-272H
AZ628 + Decitabine; first compound 0.08 µM
  relative viability: 0.297
AZ628 + Decitabine; first compound 0.253 µM
  relative viability: 0.328
AZ628 + Decitabine; first compound 0.8 µM
  relative viability: 0.371
AZ628 + Decitabine; first compound 2.53 µM
  relative viability: 0.319
AZ628 + Decitabine; first compound 8 µM
  relative viability: 0.225
QS11 + Linsitinib; first compound 0.08 µM
  relative viability: 1.16
QS11 + Linsitinib; first compound 0.253 µM
  relative viability: 1.47
QS11 + Linsitinib; first compound 0.8 µM
  relative viability: 1.12
QS11 + Linsitinib; first compound 2.53 µM
  relative viability: 1.09
QS11 + Linsitinib; first compound 8 µM
  relative viability: 1.23
AZ628 + Foretinib; first compound 0.08 µM
  relative viability: 0.671
AZ628 + Foretinib; first compound 0.253 µM
  relative viability: 0.625
AZ628 + Foretinib; first compound 0.8 µM
  relative viability: 0.654
AZ628 + Foretinib; first compound 2.53 µM
  relative viability: 0.581
AZ628 + Foretinib; first compound 8 µM
  relative viability: 0.309
Darinaparsin + Alpelisib; first compound 0.08 µM
  relative viability: 1.03
Darinaparsin + Alpelisib; first compound 0.8 µM
  relative viability: 0.931
Darinaparsin + Alpelisib; first compound 2.53 µM
  relative viability: 0.851
Darinaparsin + Alpelisib; first compound 8 µM
  relative viability: 1.15

## NCI-H2228
QS11 + Linsitinib; first compound 0.08 µM
  relative viability: 0.658
QS11 + Linsitinib; first compound 0.253 µM
  relative viability: 0.555
QS11 + Linsitinib; first compound 0.8 µM
  relative viability: 0.809
QS11 + Linsitinib; first compound 2.53 µM
  relative viability: 0.834
QS11 + Linsitinib; first compound 8 µM
  relative viability: 0.797
AZ628 + Foretinib; first compound 0.08 µM
  relative viability: 0.72
AZ628 + Foretinib; first compound 0.253 µM
  relative viability: 0.806
AZ628 + Foretinib; first compound 0.8 µM
  relative viability: 0.811
AZ628 + Foretinib; first compound 2.53 µM
  relative viability: 0.722
AZ628 + Foretinib; first compound 8 µM
  relative viability: 0.532
Darinaparsin + Alpelisib; first compound 0.08 µM
  relative viability: 1.03
Darinaparsin + Alpelisib; first compound 0.8 µM
  relative viability: 0.992
Darinaparsin + Alpelisib; first compound 2.53 µM
  relative viability: 0.735
Darinaparsin + Alpelisib; first compound 8 µM
  relative viability: 0.933

## LC-2-ad
AZ628 + Decitabine; first compound 0.08 µM
  relative viability: 0.821
AZ628 + Decitabine; first compound 0.253 µM
  relative viability: 0.782
AZ628 + Decitabine; first compound 0.8 µM
  relative viability: 0.816
AZ628 + Decitabine; first compound 2.53 µM
  relative viability: 0.732
AZ628 + Decitabine; first compound 8 µM
  relative viability: 0.453
QS11 + Linsitinib; first compound 0.08 µM
  relative viability: 0.791
QS11 + Linsitinib; first compound 0.253 µM
  relative viability: 0.832
QS11 + Linsitinib; first compound 0.8 µM
  relative viability: 0.699
QS11 + Linsitinib; first compound 2.53 µM
  relative viability: 0.817
QS11 + Linsitinib; first compound 8 µM
  relative viability: 0.829
AZ628 + Foretinib; first compound 0.08 µM
  relative viability: 1.02
AZ628 + Foretinib; first compound 0.253 µM
  relative viability: 1.06
AZ628 + Foretinib; first compound 0.8 µM
  relative viability: 0.947
AZ628 + Foretinib; first compound 2.53 µM
  relative viability: 0.978
AZ628 + Foretinib; first compound 8 µM
  relative viability: 0.863
Darinaparsin + Alpelisib; first compound 0.08 µM
  relative viability: 0.954
Darinaparsin + Alpelisib; first compound 0.8 µM
  relative viability: 0.832
Darinaparsin + Alpelisib; first compound 2.53 µM
  relative viability: 0.856
Darinaparsin + Alpelisib; first compound 8 µM
  relative viability: 1.01

## HOP-62
AZ628 + Decitabine; first compound 0.08 µM
  relative viability: 0.235
AZ628 + Decitabine; first compound 0.253 µM
  relative viability: 0.265
AZ628 + Decitabine; first compound 0.8 µM
  relative viability: 0.236
AZ628 + Decitabine; first compound 2.53 µM
  relative viability: 0.249
AZ628 + Decitabine; first compound 8 µM
  relative viability: 0.214
QS11 + Linsitinib; first compound 0.08 µM
  relative viability: 0.784
QS11 + Linsitinib; first compound 0.253 µM
  relative viability: 1.05
QS11 + Linsitinib; first compound 0.8 µM
  relative viability: 0.852
QS11 + Linsitinib; first compound 2.53 µM
  relative viability: 0.616
QS11 + Linsitinib; first compound 8 µM
  relative viability: 0.913
AZ628 + Foretinib; first compound 0.08 µM
  relative viability: 1.05
AZ628 + Foretinib; first compound 0.253 µM
  relative viability: 1.07
AZ628 + Foretinib; first compound 0.8 µM
  relative viability: 1.02
AZ628 + Foretinib; first compound 2.53 µM
  relative viability: 0.999
AZ628 + Foretinib; first compound 8 µM
  relative viability: 0.629
Darinaparsin + Alpelisib; first compound 0.08 µM
  relative viability: 1.24
Darinaparsin + Alpelisib; first compound 0.8 µM
  relative viability: 0.755
Darinaparsin + Alpelisib; first compound 2.53 µM
  relative viability: 0.786
Darinaparsin + Alpelisib; first compound 8 µM
  relative viability: 0.991

## UMC-11
AZ628 + Decitabine; first compound 0.08 µM
  relative viability: 0.704
AZ628 + Decitabine; first compound 0.253 µM
  relative viability: 0.65
AZ628 + Decitabine; first compound 0.8 µM
  relative viability: 0.551
AZ628 + Decitabine; first compound 2.53 µM
  relative viability: 0.556
AZ628 + Decitabine; first compound 8 µM
  relative viability: 0.758
QS11 + Linsitinib; first compound 0.08 µM
  relative viability: 1.06
QS11 + Linsitinib; first compound 0.253 µM
  relative viability: 1.16
QS11 + Linsitinib; first compound 0.8 µM
  relative viability: 1.08
QS11 + Linsitinib; first compound 2.53 µM
  relative viability: 1.17
QS11 + Linsitinib; first compound 8 µM
  relative viability: 1.24
AZ628 + Foretinib; first compound 0.08 µM
  relative viability: 1.13
AZ628 + Foretinib; first compound 0.253 µM
  relative viability: 0.916
AZ628 + Foretinib; first compound 0.8 µM
  relative viability: 0.951
AZ628 + Foretinib; first compound 2.53 µM
  relative viability: 1
AZ628 + Foretinib; first compound 8 µM
  relative viability: 1.19
Darinaparsin + Alpelisib; first compound 0.08 µM
  relative viability: 0.861
Darinaparsin + Alpelisib; first compound 0.8 µM
  relative viability: 0.981
Darinaparsin + Alpelisib; first compound 2.53 µM
  relative viability: 0.683
Darinaparsin + Alpelisib; first compound 8 µM
  relative viability: 1.15

## Calu-6
QS11 + Linsitinib; first compound 0.08 µM
  relative viability: 0.971
QS11 + Linsitinib; first compound 0.253 µM
  relative viability: 0.936
QS11 + Linsitinib; first compound 0.8 µM
  relative viability: 0.762
QS11 + Linsitinib; first compound 2.53 µM
  relative viability: 0.921
QS11 + Linsitinib; first compound 8 µM
  relative viability: 1.21
AZ628 + Foretinib; first compound 0.08 µM
  relative viability: 0.867
AZ628 + Foretinib; first compound 0.253 µM
  relative viability: 0.726
AZ628 + Foretinib; first compound 0.8 µM
  relative viability: 0.636
AZ628 + Foretinib; first compound 2.53 µM
  relative viability: 0.816
AZ628 + Foretinib; first compound 8 µM
  relative viability: 0.142
Darinaparsin + Alpelisib; first compound 0.08 µM
  relative viability: 1.14
Darinaparsin + Alpelisib; first compound 0.8 µM
  relative viability: 0.975
Darinaparsin + Alpelisib; first compound 2.53 µM
  relative viability: 1.02
Darinaparsin + Alpelisib; first compound 8 µM
  relative viability: 0.945

## HCC-44
AZ628 + Decitabine; first compound 0.08 µM
  relative viability: 0.97
AZ628 + Decitabine; first compound 0.253 µM
  relative viability: 0.999
AZ628 + Decitabine; first compound 0.8 µM
  relative viability: 1
AZ628 + Decitabine; first compound 2.53 µM
  relative viability: 0.953
AZ628 + Decitabine; first compound 8 µM
  relative viability: 0.947
QS11 + Linsitinib; first compound 0.08 µM
  relative viability: 0.79
QS11 + Linsitinib; first compound 0.253 µM
  relative viability: 0.647
QS11 + Linsitinib; first compound 0.8 µM
  relative viability: 0.532
QS11 + Linsitinib; first compound 2.53 µM
  relative viability: 0.549
QS11 + Linsitinib; first compound 8 µM
  relative viability: 0.531
Darinaparsin + Alpelisib; first compound 0.08 µM
  relative viability: 0.833
Darinaparsin + Alpelisib; first compound 0.8 µM
  relative viability: 0.92
Darinaparsin + Alpelisib; first compound 2.53 µM
  relative viability: 0.576
Darinaparsin + Alpelisib; first compound 8 µM
  relative viability: 0.979

## NCI-H727
AZ628 + Decitabine; first compound 0.08 µM
  relative viability: 0.918
AZ628 + Decitabine; first compound 2.53 µM
  relative viability: 0.644
AZ628 + Decitabine; first compound 8 µM
  relative viability: 0.345
QS11 + Linsitinib; first compound 0.08 µM
  relative viability: 0.287
QS11 + Linsitinib; first compound 0.253 µM
  relative viability: 0.296
QS11 + Linsitinib; first compound 0.8 µM
  relative viability: 0.338
QS11 + Linsitinib; first compound 2.53 µM
  relative viability: 0.316
QS11 + Linsitinib; first compound 8 µM
  relative viability: 0.289
AZ628 + Foretinib; first compound 0.08 µM
  relative viability: 0.628
AZ628 + Foretinib; first compound 0.253 µM
  relative viability: 0.455
AZ628 + Foretinib; first compound 0.8 µM
  relative viability: 0.383
AZ628 + Foretinib; first compound 2.53 µM
  relative viability: 0.319
AZ628 + Foretinib; first compound 8 µM
  relative viability: 0.322
Darinaparsin + Alpelisib; first compound 0.08 µM
  relative viability: 0.718
Darinaparsin + Alpelisib; first compound 0.8 µM
  relative viability: 0.587
Darinaparsin + Alpelisib; first compound 2.53 µM
  relative viability: 0.549
Darinaparsin + Alpelisib; first compound 8 µM
  relative viability: 0.683
